The numbers were not newly measured in patent publication US9185913B2, “10H-benzo[g]pteridine-2,4-dione derivatives, method for the production thereof, and use thereof” (TRIOPTOTEC GMBH, priority 2011, dated 2015), which cites them from elsewhere.

Series [1] has as its system microorganisms.
In series [2] the test system is microorganisms. This is another data set of the same source.

On to `Cc1cc2nc3c(=O)[nH]c(=O)nc-3n(C[C@H](O)[C@H](O)[C@H](O)CO)c2cc1C` [riboflavin], for which, in the series on microorganisms [1], the Affinity for microorganisms entry is on record as “low”. Also, the Inactivation of microorganisms entry with microorganisms [2] was “inadequate”.
Regarding `CC(=O)OC[C@@H](OC(C)=O)[C@@H](OC(C)=O)[C@H](Cn1c2nc(=O)[nH]c(=O)c-2nc2cc(C)c(C)cc21)OC(C)=O` [tetraacetylriboflavin], the Affinity for microorganisms result with microorganisms [1] is on record as “low”. Further, the Inactivation of microorganisms result in the series on microorganisms [2] was “inadequate”.
